{
  "source": "paper PMC5430895",
  "about": "(Scientific Reports, 2017)",
  "key": {"[1]": {"test_system": "saracatinib uptake into RASF", "assay": "Uptake competition experiments: saracatinib uptake by RASF in presence of transporter substrates", "settings": "saracatinib 10 µM"}, "[2]": {"substrate": "CN1CCN(CCOc2cc(OC3CCOCC3)c3c(Nc4c(Cl)ccc5c4OCO5)ncnc3c2)CC1", "assay": "cells, lysate or membranes named", "settings": "other: hOCTN1-HEK293 cells, 10 min incubation; pH 7.4; 37.0 °C", "method": "Twenty-four hours before starting experiments hOCTN1 expression was induced by 1 mg/l doxycycline (Sigma-Aldrich, Steinheim, Germany). Cells were grown at standard conditions. […] Cell number was evaluated with a CASEYTT cell counter (Roche Innovatis, Reutlingen, Germany).\nAfter incubation, cells were washed with ice-cold PBS and hypoosmotic lysis was induced with 0.1% formic acid. […] The mobile phase consisted of (A) acetonitrile with 0.1% formic acid and (B) 0.1% formic acid and was delivered at 0.3 ml/min in a gradient program. After delivering 100% B for 3 min, a linear gradient to 100% A was applied within 7 min and maintained for 5 min. Thereafter, in order to re-equilibrate the column, a simple isocratic elution step with 100% eluent B was applied for at least 6 min. […] Separation was carried out on an Accucore C18 column equipped with a C18 guard column. The data were acquired by ChromQuest 5.0 chromatography software."}},
  "data": [
    {"molecule": "C[N+](C)(C)[C@@H](Cc1c[nH]c(=S)[nH]1)C(=O)[O-]", "note": "[Ergothioneine, L-(+)-ergothioneine]", "values": [
      {"measurement": "net accumulation rate of saracatinib, % of the control", "setting": "[1]; ergothioneine 40 µM (OCTN1 substrate)", "result": 53, "unit": "%"}
    ]},
    {"molecule": "C[n+]1ccc(-c2ccccc2)cc1.[I-]", "note": "[MPP^+]", "values": [
      {"measurement": "effect on saracatinib uptake", "setting": "[1]; MPP+ 20 µM (inhibitor of hOCT1-3)", "result": "did not influence saracatinib uptake"}
    ]},
    {"molecule": "hOCTN1 (Homo sapiens) (protein) MRDYDEVIAFLGEWGPFQRLIFFLLSASIIPNGFNGMSVVFLAGTPEHRCRVPDAANLSSAWRNNSVPLRLRDGREVPHSCSRYRLATIANFSALGLEPGRDVDLGQLEQESCLDGWEFSQDVYLSTVVTEWNLVCEDNWKVPLTTSLFFVGVLLGSFVSGQLSDRFGRKNVLFATMAVQTGFSFLQIFSISWEMFTVLFVIVGMGQISNYVVAFILGTEILGKSVRIIFSTLGVCTFFAVGYMLLPLFAYFIRDWRMLLLALTVPGVLCVPLWWFIPESPRWLISQRRFREAEDIIQKAAKMNNIAVPAVIFDSVEELNPLKQQKAFILDLFRTRNIAIMTIMSLLLWMLTSVGYFALSLDAPNLHGDAYLNCFLSALIEIPAYITAWLLLRTLPRRYIIAAVLFWGGGVLLFIQLVPVDYYFLSIGLVMLGKFGITSAFSMLYVFTAELYPTLVRNMAVGVTSTASRVGSIIAPYFVYLGAYNRMLPYIVMGSLTVLIGILTLFFPESLGMTLPETLEQMQKVKWFRSGKKTRDSMETEENPKVLITAF", "values": [
      {"measurement": "Km", "setting": "[2]", "result": "42 ± 11", "unit": "µM"}
    ]}
  ]
}
